In publication PMC7377239, “Cardiovascular Effects of Polychlorinated Biphenyls and Their Major Metabolites” (Environmental Health Perspectives, 2020):
Where a name gives a salt, the structure may show the parent alone. Read-outs that look alike come from different tables or passages of the source.

Tested on: iCell cardiomyocytes (human iPSC-derived cardiomyocytes)
Experiment: Intracellular Ca2+ flux / beating parameters in iCell cardiomyocytes (FLIPR tetra), 90 min or 24 h
Type: cell-based
Conditions: Homo sapiens, Cardiomyocyte, 0.00 µM = 100.00; for activity at 0.1 µM: 0.10 µM
How it was run: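 PODs were defined as the concentration crossing one SD of the vehicle-control means (0.5% DMSO) on four-parameter logistic fits of Ca2+ trace metrics (peak height, frequency, peak-spacing CV, decay/rise ratio). Traces came from 100 s, 8 Hz FLIPR reads at 37 °C on calcium-dye-loaded iCell cardiomyocytes. Before reading, cells were treated for 90 min or 24 h from 5× chemical plates spanning 0.05–500 µM, in triplicate.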

[1] = 1.5 h, 90min, read-out: cm.amp.avg.90min
[2] = 1.5 h, 90min, read-out: cm.amp.cv.90min
[3] = 1.5 h, 90min, read-out: cm.bpm.90min
[4] = 1.5 h, 90min, read-out: cm.decay.rise.90min
[5] = 1.5 h, 90min, read-out: cm.spacing.cv.90min
[6] = 24 h, 24hrs, read-out: cm.amp.avg.24hrs
[7] = 24 h, 24hrs, read-out: cm.amp.cv.24hrs
[8] = 24 h, 24hrs, read-out: cm.bpm.24hrs
[9] = 24 h, 24hrs, read-out: cm.decay.rise.24hrs
[10] = 24 h, 24hrs, read-out: cm.spacing.cv.24hrs

Work on `O=S(=O)(O)Oc1cc(Cl)c(-c2cc(Cl)ccc2Cl)cc1Cl` [4-yl PCB 52 sulfate] yielded an activity at 0.01 µM [1] of 103%, an activity at 0.01 µM [2] of 105% and an activity at 0.01 µM [3] of 102%. For the same compound, the activity at 0.01 µM [4] was 101%, the activity at 0.01 µM [5] was 100% and the activity at 0.1 µM [1] was 113%. The activity at 0.1 µM [2] was 86.3%, the activity at 0.1 µM [3] was 103% and the activity at 0.1 µM [4] was 90.8%. It also gave an activity at 0.1 µM [5] of 101%, an activity at 1 µM [1] of 102% and an activity at 1 µM [2] of 104%. For the same compound, the activity at 1 µM [3] was 100%, the activity at 1 µM [4] was 97.7% and the activity at 1 µM [5] was 97.4%. The activity at 10 µM [1] was 98.4%, the activity at 10 µM [2] was 103% and the activity at 10 µM [3] was 97.8%. The activity at 10 µM [4] was 97.1%, the activity at 10 µM [5] was 104% and the activity at 100 µM [1] was 0%. The activity at 100 µM [2] was 0%, the activity at 100 µM [3] was 0% and the activity at 100 µM [4] was 0%. The activity at 100 µM [5] was 0%, the activity at 0.01 µM [6] was 128% and the activity at 0.01 µM [7] was 103%. The activity at 0.01 µM [8] was 97.4%, the activity at 0.01 µM [9] was 104% and the activity at 0.01 µM [10] was 107%. The activity at 0.1 µM [6] was 135%, the activity at 0.1 µM [7] was 70.5% and the activity at 0.1 µM [8] was 94.5%. The activity at 0.1 µM [9] was 109%, the activity at 0.1 µM [10] was 110% and the activity at 1 µM [6] was 147%. For the same compound, the activity at 1 µM [7] was 69.4%, the activity at 1 µM [8] was 95.5% and the activity at 1 µM [9] was 104%. It also gave an activity at 1 µM [10] of 91.9%, an activity at 10 µM [6] of 167% and an activity at 10 µM [7] of 68.9%. The activity at 10 µM [8] was 92.6%, the activity at 10 µM [9] was 98.8% and the activity at 10 µM [10] was 111%. The activity at 100 µM [6] was 0%, the activity at 100 µM [7] was 0% and the activity at 100 µM [8] was 0%. The activity at 100 µM [9] was 0% and the activity at 100 µM [10] was 0%.
